Data taken from patent US8362000B2, “Azetidinyl diamides as monoacylglycerol lipase inhibitors” (Janssen Pharmaceutica NV, priority 2009, dated 2013).

molecular target: T1, mutant MGL (Homo sapiens, UniProt Q99685, L169S/L176S); assay: MGL ThermoFluor assay - mutant; type: binding; settings: ThermoFluor concentration-response, read-out: MGL mutant ThermoFluor Kd
T1 sequence (Q99685 1-303 L169S/L176S): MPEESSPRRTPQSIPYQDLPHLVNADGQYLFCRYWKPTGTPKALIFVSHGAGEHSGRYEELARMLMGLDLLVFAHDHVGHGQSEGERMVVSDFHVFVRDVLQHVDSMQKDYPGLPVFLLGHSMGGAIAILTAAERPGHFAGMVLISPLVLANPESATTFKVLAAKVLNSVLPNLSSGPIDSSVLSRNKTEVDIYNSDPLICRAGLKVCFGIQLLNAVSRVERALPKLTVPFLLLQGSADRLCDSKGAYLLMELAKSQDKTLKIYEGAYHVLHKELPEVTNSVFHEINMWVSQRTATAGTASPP
Protocol: The ThermoFluor (TF) assay is a 384-well plate-based binding assay that measures thermal stability of proteins^1,2. […] TF dye used in all experiments was 1,8-ANS (Invitrogen: A-47). Final TF assay conditions used for MGL studies were 0.07 mg/ml of mutant MGL, 100 μM ANS, 200 mM NaCl, 0.001% Tween-20 in 50 mM PIPES (pH=7.0).
Screening compound plates contained 100% DMSO compound solutions at a single concentration. […] Columns 12 and 24 were used as DMSO reference and contained no compound. […] Following compound dispension, protein and dye solutions were added to achieve the final assay volume of 3 μL.
Bar-coded assay plates were robotically loaded onto a thermostatically controlled PCR-type thermal block and then heated from 40 to 90° C. degrees at a ramp-rate of 1° C./min for all experiments. Fluorescence was measured by continuous illumination with UV light (Hamamatsu LC6), supplied via fiber optics and filtered through a band-pass filter (380-400 nm; >60D cutoff). Fluorescence emission of the entire 384-well plate was detected by measuring light intensity using a CCD camera (Sensys, Roper Scientific) filtered to detect 500±25 nm, resulting in simultaneous and independent readings of all 384 wells. A single image with 20-sec exposure time was collected at each temperature, and the sum of the pixel intensity in a given area of the assay plate was recorded vs temperature and fit to standard equations to yield the Tm^1. • 1.
For some experiments, quantitative NMR spectroscopy (qNMR) was used to measure concentration of the initial 100% DMSO compound solutions and, using the same fitting method, qKd values were determined

Row | Compound | Kd [nM]
1 | Cc1c(-c2ccccc2)oc2c(C(=O)N3CC(N4CCN(C(=O)c5ccccc5)CC4)C3)cccc2c1=O [Cpd 107, 3-Methyl-2-phenyl-8-({3-[4-(phenylcarbonyl)piperazin-1-yl]azetidin-1-yl}carbonyl)-4H-chromen-4-one] | 556
2 | O=C(c1ccccc1)N1CCN(C2CN(C(=O)c3ccc(Br)cc3)C2)CC1 [Cpd 27, 1-{1-[(4-Bromophenyl)carbonyl]azetidin-3-yl}-4-(phenylcarbonyl)piperazine] | 4550
3 | COc1cc(C(=O)N2CC(N3CCN(C(=O)c4nccs4)CC3)C2)ccc1-c1ccccc1 [Cpd 1377] | 6
4 | N#Cc1ccc(-c2ccc(C(=O)N3CC(N4CCN(C(=O)c5ccccc5)CC4)C3)cc2)cc1 [Cpd 82, 4′-({3-[4-(Phenylcarbonyl)piperazin-1-yl]azetidin-1-yl}carbonyl)biphenyl-4-carbonitrile] | 571
5 | Cc1nc(-c2cccc(Cl)c2)sc1C(=O)N1CC(N2CCN(C(=O)c3ccccc3)CC2)C1 [Cpd 620, 1-(1-{[2-(3-Chlorophenyl)-4-methyl-1,3-thiazol-5-yl]carbonyl}azetidin-3-yl)-4-(phenylcarbonyl)piperazine] | 154
6 | O=C(c1ccccc1)N1CCN(C2CN(C(=O)c3cccnc3Oc3ccc(Cl)cc3)C2)CC1 [Cpd 474, 1-(1-{[2-(4-Chlorophenoxy)pyridin-3-yl]carbonyl}azetidin-3-yl)-4-(phenylcarbonyl)piperazine] | 5000
7 | O=C(c1ccc(-c2cccc(Cl)c2)cc1)N1CC(N2CCN(C(=O)c3nccs3)CC2)C1 [Cpd 162, 1-{1-[(3′-Chlorobiphenyl-4-yl)carbonyl]azetidin-3-yl}-4-(1,3-thiazol-2-ylcarbonyl)piperazine] | 0.67
8 | O=C(c1ccccc1)N1CCN(C2CN(C(=O)c3ccc4[nH]c5c(c4c3)CCCC5)C2)CC1 [Cpd 55, 6-({3-[4-(Phenylcarbonyl)piperazin-1-yl]azetidin-1-yl}carbonyl)-2,3,4,9-tetrahydro-1H-carbazole] | 25000
9 | O=C(c1ccccc1)N1CCN(C2CN(C(=O)c3ccc(NCc4ccc(Cl)c(Cl)c4)cc3)C2)CC1 [Cpd 493, N-(3,4-Dichlorobenzyl)-4-({3-[4-(phenylcarbonyl)piperazin-1-yl]azetidin-1-yl}carbonyl)aniline] | 25
10 | N#Cc1cccc(-c2ccc(C(=O)N3CC(N4CCN(C(=O)c5ccccc5)CC4)C3)cc2)c1 [Cpd 76, 4′-({3-[4-(Phenylcarbonyl)piperazin-1-yl]azetidin-1-yl}carbonyl)biphenyl-3-carbonitrile] | 333
11 | CCN(CC)c1ccc(C(=O)N2CC(N3CCN(C(=O)c4ccccc4)CC3)C2)cc1 [Cpd 30, N,N-Diethyl-4-({3-[4-(phenylcarbonyl)piperazin-1-yl]azetidin-1-yl}carbonyl)aniline] | 118
12 | CC1CN(C2CN(C(=O)c3cccc(Oc4ccccc4)c3)C2)CCN1C(=O)c1nccs1 (stereo not drawn) [Cpd 113] | 1110
13 | O=C(c1ccccc1)N1CCN(C2CN(C(=O)c3ccc(O[C@H]4CCN(C(=O)N5CCCC5)C4)c(I)c3)C2)CC1 [Cpd 450, 1-{1-[(3-Iodo-4-{[(3S)-1-(pyrrolidin-1-ylcarbonyl)pyrrolidin-3-yl]oxy}phenyl)carbonyl]azetidin-3-yl}-4-(phenylcarbonyl)piperazine] | 50
14 | O=C(c1ccccc1)N1CCN(C2CN(C(=O)c3ccc(SCc4cccnc4)cc3)C2)CC1 [Cpd 555] | 2000
15 | O=C(c1ccc(Cc2ccccc2)cc1)N1CC(N2CCN(C(=O)c3ccccc3)C(CO)C2)C1 (stereo not drawn) [Cpd 459, [4-{1-[(4-Benzylphenyl)carbonyl]azetidin-3-yl}-1-(phenylcarbonyl)piperazin-2-yl]methanol] | 3330

same assay, conditions: ThermoFluor thermal stability binding assay, read-out: MGL mutant ThermoFluor Kd

Row | Compound | Kd [nM]
16 | O=C(c1ccccc1)N1CCN(C2CN(C(=O)c3ccc(OCc4cccc(Br)n4)cc3)C2)CC1 [Cpd 552] | 400
17 | Cc1nc(-c2ccc(F)cc2)sc1C(=O)N1CC(N2CCN(C(=O)c3cscn3)CC2)C1 [Cpd 1386] | 133
18 | O=C(c1nccs1)N1CCN(C2CN(C(=O)c3cccc4nc(Cc5cccc(F)c5)[nH]c34)C2)CC1 [Cpd 990] | 1000
